{
  "source": "patent US11739101B2",
  "about": "“Bifunctional degraders of hematopoietic progenitor kinase and therapeutic uses thereof” (Nurix Therapeutics, Inc., priority 2020, dated 2023)",
  "data": [
    {"molecular_target": "T1, HPK1 (Homo sapiens, UniProt Q92918)", "T1 construct": "A HiBiT tag was introduced by CRISPR on the N terminus of HPK1 in Jurkat cells; host or cells: Jurkat (ATCC TIB-152), monoclonal CRISPR HiBiT knock-in line", "T1 sequence (Q92918 whole entry)": "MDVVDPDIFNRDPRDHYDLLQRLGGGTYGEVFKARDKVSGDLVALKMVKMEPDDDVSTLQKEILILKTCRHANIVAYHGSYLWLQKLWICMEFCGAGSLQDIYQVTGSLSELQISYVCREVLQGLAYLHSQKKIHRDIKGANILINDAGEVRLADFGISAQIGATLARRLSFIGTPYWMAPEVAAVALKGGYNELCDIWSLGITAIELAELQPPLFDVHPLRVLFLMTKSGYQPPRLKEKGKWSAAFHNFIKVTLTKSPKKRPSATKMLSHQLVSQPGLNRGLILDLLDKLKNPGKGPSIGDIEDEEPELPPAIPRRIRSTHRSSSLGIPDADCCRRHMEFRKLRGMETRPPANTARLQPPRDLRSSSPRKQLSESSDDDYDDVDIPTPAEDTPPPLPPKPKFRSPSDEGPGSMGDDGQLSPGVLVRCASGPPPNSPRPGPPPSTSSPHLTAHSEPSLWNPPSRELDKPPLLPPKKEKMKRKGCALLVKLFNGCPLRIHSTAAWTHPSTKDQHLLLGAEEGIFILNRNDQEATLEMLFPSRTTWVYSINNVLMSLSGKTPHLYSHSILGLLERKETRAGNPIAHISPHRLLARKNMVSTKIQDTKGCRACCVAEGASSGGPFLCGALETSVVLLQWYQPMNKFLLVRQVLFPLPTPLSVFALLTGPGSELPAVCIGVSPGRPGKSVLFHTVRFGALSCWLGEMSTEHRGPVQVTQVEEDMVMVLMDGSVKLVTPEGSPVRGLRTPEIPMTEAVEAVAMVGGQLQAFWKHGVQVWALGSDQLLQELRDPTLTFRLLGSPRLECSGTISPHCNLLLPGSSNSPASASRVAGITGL", "assay": "HPK1 Cellular HiBiT Degradation Assay", "assay_type": "cell-based", "settings": "HiBiT-tagged HPK1 Jurkat cells, 24 hours, 10 uM to 0.1 nM; Dmax = 100 minus lowest % HPK1 remaining vs DMSO vehicle", "summary_of_the_method": "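Dmax is derived from four-parameter curves of % HPK1 remaining, as 100 minus the lowest value, normalized to DMSO-treated cells with parental Jurkat background subtracted. HiBiT-HPK1 knock-in Jurkat cells got compound for 24 hours (final 10 uM to 0.1 nM, 11 points) before lytic HiBiT luminescence. Cytotoxicity was checked on parallel CellTiter-Glo plates.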", "units": {"Dmax": "%"}, "values": [
      {"compound": "CC(=O)N1CCC2(CC1)C(=O)N([C@H]1C[C@@H](N3CCC[C@@H](C(=O)NCCCCCCCOc4cc(-c5scnc5C)ccc4CNC(=O)[C@@H]4C[C@@H](O)CN4C(=O)[C@@H](NC(=O)C4(F)CC4)C(C)(C)C)C3)C1)c1cc(-c3cc4ncn(C(C)C)c4c(Nc4cc(C(=O)NC(C)C)c(C)cc4F)n3)ccc12", "note": "[Example 16, (R)-1-((1s,3s)-3-(1′-acetyl-6-(4-((2-fluoro-5-(isopropylcarbamoyl)-4-methylphenyl)amino)-3-isopropyl-3H-imidazo[4,5-c]pyridin-6-yl)-2-oxospiro[indoline-3,4′-piperidin]-1-yl)cyclobutyl)-N-(7-(2-(((2S,4R)-1-((S)-2-(1-fluorocyclopropane-1-carboxamido)-3,3-dimethylbutanoyl)-4-hydroxypyrrolidine-2-carboxamido)methyl)-5-(4-methylthiazol-5-yl)phenoxy)heptyl)piperidine-3-carboxamide]", "Dmax": "< 45"},
      {"compound": "Cc1cc(F)c(Nc2nc(-c3ccc4c(c3)N(C3CC(N5CCCCC5)C3)C(=O)C43CCN(C(=O)c4ccc(C(=O)N(C)C5CCC(Nc6cccc7c6C(=O)N(C6CCC(=O)NC6=O)C7=O)CC5)cc4)CC3)cc3ncn(C(C)C)c23)cc1C(=O)NC(C)C", "note": "[Example 61, 4-fluoro-2-methyl-5-({6-[1′-(4-{methyl[(1R,4R)-4-{[2-(2,6-dioxopiperidin-3-yl)-1,3-dioxo-2,3-dihydro-1H-isoindol-4-yl]amino}cyclohexyl]carbamoyl}benzoyl)-2-oxo-1-[(1s,3s)-3-(piperidin-1-yl)cyclobutyl]-1,2-dihydrospiro[indole-3,4′-piperidin]-6-yl]-3-(propan-2-yl)-3H-imidazo[4,5-c]pyridin-4-yl}amino)-N-(propan-2-yl)benzamide]", "Cellular HPK1 HiBiT: Dmax (%)": "A (A>65%)"},
      {"compound": "Cc1cc(F)c(Nc2nc(-c3ccc4c(c3)N([C@H]3C[C@@H](N5CCCCC5)C3)C(=O)C43CCN(C(=O)C4CCN(C(=O)[C@H]5CC[C@@H](Nc6cccc7c6C(=O)N(C6CCC(=O)NC6=O)C7=O)CC5)C4)CC3)cc3ncn(C(C)C)c23)cc1C(=O)NC(C)C", "note": "(stereo partly drawn) [Example 27, 4-fluoro-2-methyl-5-[(6-{2-oxo-1-[(1s,3s)-3-(piperidin-1-yl)cyclobutyl]-1′-[1-[(1S,4S)-4-({2-[2,6-dioxopiperidin-3-yl]-1,3-dioxo-2,3-dihydro-1H-isoindol-4-yl}amino)cyclohexanecarbonyl]pyrrolidine-3-carbonyl]-1,2-dihydrospiro[indole-3,4′-piperidin]-6-yl}-3-(propan-2-yl)-3H-imidazo[4,5-c]pyridin-4-yl)amino]-N-(propan-2-yl)benzamide]", "Dmax": "< 45"},
      {"compound": "Cc1cc(F)c(Nc2nc(-c3ccc4c(c3)N([C@H]3C[C@@H](N5CCCCC5)C3)C(=O)C43CCN(C(=O)C4CN(CC5CCN(c6cccc7c6C(=O)N(C6CCC(=O)NC6=O)C7=O)C5)C4)CC3)cc3ncn(C(C)C)c23)cc1C(=O)NC(C)C", "note": "(some centres unmarked) [Example 35, 5-({6-[1′-(1-{[1-{2-[2,6-dioxopiperidin-3-yl]-1,3-dioxo-2,3-dihydro-1H-isoindol-4-yl}pyrrolidin-3-yl]methyl}azetidine-3-carbonyl)-2-oxo-1-[(1s,3s)-3-(piperidin-1-yl)cyclobutyl]-1,2-dihydrospiro[indole-3,4′-piperidin]-6-yl]-3-(propan-2-yl)-3H-imidazo[4,5-c]pyridin-4-yl}amino)-4-fluoro-2-methyl-N-(propan-2-yl)benzamide]", "Dmax": "45 to 65"},
      {"compound": "Cc1cc(F)c(Nc2nc(-c3ccc4c(c3)N([C@H]3C[C@@H](N5CCCCC5)C3)C(=O)C43CCN(C(=O)[C@H]4CC[C@@H](C(=O)N5CCN(c6ccc7c(c6)C(=O)N(C6CCC(=O)NC6=O)C7=O)CC5)CC4)CC3)cc3ncn(C(C)C)c23)cc1C(=O)NC(C)C", "note": "(stereo partly drawn) [Example 79, 5-((6-(1′-((1s,4S)-4-(4-(2-(2,6-dioxopiperidin-3-yl)-1,3-dioxoisoindolin-5-yl)piperazine-1-carbonyl)cyclohexane-1-carbonyl)-2-oxo-1-((1s,3s)-3-(piperidin-1-yl)cyclobutyl)spiro[indoline-3,4′-piperidin]-6-yl)-3-isopropyl-3H-imidazo[4,5-c]pyridin-4-yl)amino)-4-fluoro-N-isopropyl-2-methylbenzamide]", "Dmax": "45 to 65"},
      {"compound": "Cc1cc(F)c(Nc2nc(-c3ccc4c(c3)N([C@H]3C[C@@H](N5CCCCC5)C3)C(=O)C43CCN(C(=O)Cc4ccc(N5CCN(CC(=O)N[C@H](C(=O)N6C[C@H](O)C[C@H]6C(=O)N[C@@H](C)c6ccc(-c7scnc7C)cc6)C(C)(C)C)CC5)cc4)CC3)cc3ncn(C(C)C)c23)cc1C(=O)NC(C)C", "note": "[Example 47, (2S,4R)-1-[(2S)-2-(2-{4-[4-(2-{6-[4-({2-fluoro-4-methyl-5-[(propan-2-yl)carbamoyl]phenyl}amino)-3-(propan-2-yl)-3H-imidazo[4,5-c]pyridin-6-yl]-2-oxo-1-[(1s,3s)-3-(piperidin-1-yl)cyclobutyl]-1,2-dihydrospiro[indole-3,4′-piperidin]-1′-yl}-2-oxoethyl)phenyl]piperazin-1-yl}acetamido)-3,3-dimethylbutanoyl]-4-hydroxy-N-[(1S)-1-[4-(4-methyl-1,3-thiazol-5-yl)phenyl]ethyl]pyrrolidine-2-carboxamide]", "Dmax": "> 65"},
      {"compound": "Cc1cc(F)c(Nc2nc(-c3ccc4c(c3)N([C@H]3C[C@@H](N5CCCCC5)C3)C(=O)C43CCN(C(=O)C[C@@H]4CCN(C(=O)[C@H]5CC[C@H](Nc6cccc7c6C(=O)N(C6CCC(=O)NC6=O)C7=O)CC5)C4)CC3)cc3ncn(C(C)C)c23)cc1C(=O)NC(C)C", "note": "(stereo partly drawn) [Example 56, 4-fluoro-2-methyl-5-{[6-(2-oxo-1′-{2-[(3S)-1-[(1R,4R)-4-({2-[2,6-dioxopiperidin-3-yl]-1,3-dioxo-2,3-dihydro-1H-isoindol-4-yl}amino)cyclohexanecarbonyl]pyrrolidin-3-yl]acetyl}-1-[(1s,3s)-3-(piperidin-1-yl)cyclobutyl]-1,2-dihydrospiro[indole-3,4′-piperidin]-6-yl)-3-(propan-2-yl)-3H-imidazo[4,5-c]pyridin-4-yl]amino}-N-(propan-2-yl)benzamide]", "Dmax": "< 45"},
      {"compound": "Cc1cc(F)c(Nc2nc(-c3ccc4c(c3)N([C@H]3C[C@@H](N5CCCCC5)C3)C(=O)C43CCN(C(=O)CC4CCCN(CC5CCN(c6ccc7c(c6)C(=O)N(C6CCC(=O)NC6=O)C7=O)C5)C4)CC3)cc3ncn(C(C)C)c23)cc1C(=O)NC(C)C", "note": "(stereo partly drawn) [Example 29, 5-{[6-(1′-{2-[(3S)-1-({1-[2-(2,6-dioxopiperidin-3-yl)-1,3-dioxo-2,3-dihydro-1H-isoindol-5-yl]pyrrolidin-3-yl}Methyl)piperidin-3-yl]acetyl}-2-oxo-1-[(1s,3s)-3-(piperidin-1-yl)cyclobutyl]-1,2-dihydrospiro[indole-3,4′-piperidin]-6-yl)-3-(propan-2-yl)-3H-imidazo[4,5-c]pyridin-4-yl]amino}-4-fluoro-2-methyl-N-(propan-2-yl)benzamide]", "Dmax": "45 to 65"},
      {"compound": "Cc1cc(F)c(Nc2nc(-c3ccc4c(c3)N([C@H]3C[C@@H](N5CCCCC5)C3)C(=O)C43CCN(C(=O)c4ccc(OC5CCN(c6cccc7c6C(=O)N(C6CCC(=O)NC6=O)C7=O)CC5)cc4)CC3)cc3ncn(C(C)C)c23)cc1C(=O)NC(C)C", "note": "(some centres unmarked) [Example 63, 5-{[6-(1′-{4-[(1-{2-[2,6-dioxopiperidin-3-yl]-1,3-dioxo-2,3-dihydro-1H-isoindol-4-yl}piperidin-4-yl)oxy]benzoyl}-2-oxo-1-[(1s,3s)-3-(piperidin-1-yl)cyclobutyl]-1,2-dihydrospiro[indole-3,4′-piperidin]-6-yl)-3-(propan-2-yl)-3H-imidazo[4,5-c]pyridin-4-yl]amino}-4-fluoro-2-methyl-N-(propan-2-yl)benzamide]", "Dmax": "> 65"},
      {"compound": "Cc1cc(F)c(Nc2nc(-c3ccc4c(c3)N([C@H]3C[C@@H](N5CCCCC5)C3)C(=O)C43CCN(C(=O)C4CN(CC5CCN(c6cccc7c6C(=O)N(C6CCC(=O)NC6=O)C7=O)CC5)C4)CC3)cc3ncn(C(C)C)c23)cc1C(=O)NC(C)C", "note": "(some centres unmarked) [Example 33, 5-{[6-(1′-{1-[(1-{2-[2,6-dioxopiperidin-3-yl]-1,3-dioxo-2,3-dihydro-1H-isoindol-4-yl}piperidin-4-yl)methyl]azetidine-3-carbonyl}-2-oxo-1-[(1s,3s)-3-(piperidin-1-yl)cyclobutyl]-1,2-dihydrospiro[indole-3,4′-piperidin]-6-yl)-3-(propan-2-yl)-3H-imidazo[4,5-c]pyridin-4-yl]amino}-4-fluoro-2-methyl-N-(propan-2-yl)benzamide]", "Dmax": "> 65"},
      {"compound": "CC(=O)N1CCC2(CC1)C(=O)N([C@H]1C[C@@H](N3CCC[C@@H](C(=O)NCCCCCCCCCOc4cc(-c5scnc5C)ccc4CNC(=O)[C@@H]4C[C@@H](O)CN4C(=O)[C@@H](NC(=O)C4(F)CC4)C(C)(C)C)C3)C1)c1cc(-c3cc4ncn(C(C)C)c4c(Nc4cc(C(=O)NC(C)C)c(C)cc4F)n3)ccc12", "note": "[Example 17, (R)-1-((1s,3s)-3-(1′-acetyl-6-(4-((2-fluoro-5-(isopropylcarbamoyl)-4-methylphenyl)amino)-3-isopropyl-3H-imidazo[4,5-c]pyridin-6-yl)-2-oxospiro[indoline-3,4′-piperidin]-1-yl)cyclobutyl)-N-(9-(2-(((2S,4R)-1-((S)-2-(1-fluorocyclopropane-1-carboxamido)-3,3-dimethylbutanoyl)-4-hydroxypyrrolidine-2-carboxamido)methyl)-5-(4-methylthiazol-5-yl)phenoxy)nonyl)piperidine-3-carboxamide]", "Dmax": "< 45"}
    ]}
  ]
}
